In US11542530B2, “Method for increasing efficiency of homologous recombination-based gene editing in plant” (INDUSTRY-ACADEMIC COOPERATION FOUNDATION GYEONGSANG …, priority 2018, dated 2023):
Like-named read-outs stand apart in the source and are kept apart here.

What was measured:
recombinase RAD51 = conditions: mouse, reported; cited from earlier work
RAD51 = assay: HDR efficiency after treatment with RS-1; type: cell-based; conditions: RS-1 as activator of RAD51
Text: As a method which can be used either simultaneously or separately from the approaching method of above VI, there is a method of activating HDR pathway-regulating proteins by using chemical factors.

mammalian ligase IV [1] = conditions: mouse, reported; cited from earlier work
mammalian ligase IV [2] = conditions: human cell line, reported; cited from earlier work
ligase IV = conditions: reported, background art; cited from earlier work
[3] = tested on: ligase IV of the NHEJ pathway; assay: HDR efficiency after treatment with NHEJ inhibitor SCR7 pyrazine, tomato cotyledons with pTC217 / pTC147; type: cell-based; conditions: for Editing efficiency: total purple spots (pTC217)/total purple spots (pTC147)×100 / Editing efficiency / Purple spot/cotyledon (Avg.) / Purple spots (Total): 21 dpi
Text: In the present invention, a method of increasing the HDR efficiency according to blocking of the NHEJ pathway by using Scr7 pyrazine chemical compound, which is an inhibitor of ligase IV of the NHEJ pathway in competitive relationship with the HDR pathway, was employed. As a result, when Scr7 pyrazine is used, the HDR efficiency had increased by 4 times compared to the comparative control group.
In order to measure the HDR frequency of Cas9, 21 days after the Agrobacterium infection, purple spots were counted from the cotyledon which has been infected with pTC217 (BeYDV with Cas9/gRNA1b) virus replicon and also from the cotyledon which has been transformed with pTC147 (35S:ANT1 T-DNA) control vector. By dividing the total number of purple spots that has been counted from callus generated with pTC217 by the total number of purple spots that has been counted from callus generated with pTC147, the HDR frequency rate was estimated.
DNA repair is mostly achieved by NHEJ pathway, and HDR-based repair occurs very limitedly. According to previous studies made on mammals, it was reported that HDR efficiency can be increased by blocking the NHEJ pathway. It is reported that SCR7 pyrazine, which is an inhibitor of mammalian ligase IV, can increase HDR as much as about 19 times in mouse, or 5 times in human cell line. […] However, no report has been made regarding the influence of SCR7 pyrazine on plant HDR. Accordingly, the effect of a treatment with different cultivation period (0, 1, 2 or 3 days) or different SCR7 pyrazine concentration (0, 1, 10 μM) was examined by the inventors of the present invention by using Cas9 structure pTC217 (BeYDV having Cas9/gRNA1b).
[Editing efficiency: total purple spots (pTC217)/total purple spots (pTC147)×100]

[4] = Table 13 (Change 1), pTC147 (T-DNA), SCR7 1 μM, 1 day, cv. Hong-Kwang, DD→16L/8D, 28° C.
[5] = Table 13 (Change 1), pTC147 (T-DNA), SCR7 1 μM, 2 days, cv. Hong-Kwang, DD→16L/8D, 28° C.
[6] = Table 13 (Change 1), pTC147 (T-DNA), SCR7 1 μM, 3 days, cv. Hong-Kwang, DD→16L/8D, 28° C.
[7] = Table 13 (Change 1), pTC147 (T-DNA), SCR7 10 μM, 1 day, cv. Hong-Kwang, DD→16L/8D, 28° C.
[8] = Table 13 (Change 1), pTC147 (T-DNA), SCR7 10 μM, 2 days, cv. Hong-Kwang, DD→16L/8D, 28° C.
[9] = Table 13 (Change 1), pTC147 (T-DNA), SCR7 10 μM, 3 days, cv. Hong-Kwang, DD→16L/8D, 28° C.
[10] = Table 13 (Change 1), pTC217, SCR7 1 μM, 1 day, cv. Hong-Kwang, DD→16L/8D, 28° C.
[11] = Table 13 (Change 1), pTC217, SCR7 1 μM, 2 days, cv. Hong-Kwang, DD→16L/8D, 28° C.
[12] = Table 13 (Change 1), pTC217, SCR7 1 μM, 3 days, cv. Hong-Kwang, DD→16L/8D, 28° C.
[13] = Table 13 (Change 1), pTC217, SCR7 10 μM, 1 day, cv. Hong-Kwang, DD→16L/8D, 28° C.
[14] = Table 13 (Change 1), pTC217, SCR7 10 μM, 2 days, cv. Hong-Kwang, DD→16L/8D, 28° C.
[15] = Table 13 (Change 1), pTC217, SCR7 10 μM, 3 days, cv. Hong-Kwang, DD→16L/8D, 28° C.
[16] = Table 14 (Change 2), pTC147 (T-DNA), SCR7 1 μM, 1 day, cv. Hong-Kwang, DD→16L/8D, 28° C.
[17] = Table 14 (Change 2), pTC147 (T-DNA), SCR7 1 μM, 2 days, cv. Hong-Kwang, DD→16L/8D, 28° C.
[18] = Table 14 (Change 2), pTC147 (T-DNA), SCR7 1 μM, 3 days, cv. Hong-Kwang, DD→16L/8D, 28° C.
[19] = Table 14 (Change 2), pTC147 (T-DNA), SCR7 10 μM, 1 day, cv. Hong-Kwang, DD→16L/8D, 28° C.
[20] = Table 14 (Change 2), pTC147 (T-DNA), SCR7 10 μM, 2 days, cv. Hong-Kwang, DD→16L/8D, 28° C.
[21] = Table 14 (Change 2), pTC147 (T-DNA), SCR7 10 μM, 3 days, cv. Hong-Kwang, DD→16L/8D, 28° C.
[22] = Table 14 (Change 2), pTC217, SCR7 1 μM, 1 day, cv. Hong-Kwang, DD→16L/8D, 28° C.
[23] = Table 14 (Change 2), pTC217, SCR7 1 μM, 2 days, cv. Hong-Kwang, DD→16L/8D, 28° C.
[24] = Table 14 (Change 2), pTC217, SCR7 1 μM, 3 days, cv. Hong-Kwang, DD→16L/8D, 28° C.
[25] = Table 14 (Change 2), pTC217, SCR7 10 μM, 1 day, cv. Hong-Kwang, DD→16L/8D, 28° C.
[26] = Table 14 (Change 2), pTC217, SCR7 10 μM, 2 days, cv. Hong-Kwang, DD→16L/8D, 28° C.
[27] = Table 14 (Change 2), pTC217, SCR7 10 μM, 3 days, cv. Hong-Kwang, DD→16L/8D, 28° C.
[28] = pTC147 (T-DNA), SCR7 1 μM, cv. Tom-Heart, 16L/8D, 25° C.
[29] = pTC147 (T-DNA), SCR7 10 μM, cv. Tom-Heart, 16L/8D, 25° C.
[30] = pTC217, SCR7 1 μM, cv. Tom-Heart, 16L/8D, 25° C.
[31] = pTC217, SCR7 10 μM, cv. Tom-Heart, 16L/8D, 25° C.

Structure (SMILES): O=C(Nc1ccc(Br)cc1)c1ccc(Br)c(S(=O)(=O)NCc2ccccc2)c1 [RS-1, RAD51-stimulatory compound 1]
- effect on HDR efficiency (recombinase RAD51): can increase the HDR efficiency in mouse
- increase of HDR efficiency (RAD51): approximately 3 times

Structure (SMILES): O=c1[nH]c(=S)[nH]c2nc(-c3ccccc3)c(-c3ccccc3)nc12 [SCR7, 2,3-dihydro-6,7-diphenyl-2-thioxo-4 (1H)-pteridinone]
- increase of HDR (mammalian ligase IV [1]): about 19 times
- increase of HDR (mammalian ligase IV [2]): ~5 times
- increase of HDR (ligase IV): 2 to 19 times
- Editing efficiency: total purple spots (pTC217)/total purple spots (pTC147)×100 ([3]; SCR7 1 μM, cv. Tom-Heart, 16L/8D, 25° C.): 4.5
- Editing efficiency: total purple spots (pTC217)/total purple spots (pTC147)×100 ([3]; SCR7 10 μM, cv. Tom-Heart, 16L/8D, 25° C.): 11.9
- Editing efficiency ([3]; Table 13 (Change 1), SCR7 1 μM, 1 day, cv. Hong-Kwang, DD→16L/8D, 28° C.): 1.89
- Editing efficiency ([3]; Table 13 (Change 1), SCR7 1 μM, 2 days, cv. Hong-Kwang, DD→16L/8D, 28° C.): 3.39
- Editing efficiency ([3]; Table 13 (Change 1), SCR7 1 μM, 3 days, cv. Hong-Kwang, DD→16L/8D, 28° C.): 7.74
- Editing efficiency ([3]; Table 13 (Change 1), SCR7 10 μM, 1 day, cv. Hong-Kwang, DD→16L/8D, 28° C.): 3.41
- Editing efficiency ([3]; Table 13 (Change 1), SCR7 10 μM, 2 days, cv. Hong-Kwang, DD→16L/8D, 28° C.): 9.27
- Editing efficiency ([3]; Table 13 (Change 1), SCR7 10 μM, 3 days, cv. Hong-Kwang, DD→16L/8D, 28° C.): 22.93
- Purple spot/cotyledon (Avg.) [3, 4]: 28.7
- Purple spots (Total) [3, 4]: 1005
- Purple spot/cotyledon (Avg.) [3, 5]: 26.9
- Purple spots (Total) [3, 5]: 942
- Purple spot/cotyledon (Avg.) [3, 6]: 23.2
- Purple spots (Total) [3, 6]: 813
- Purple spot/cotyledon (Avg.) [3, 7]: 20.1
- Purple spots (Total) [3, 7]: 703
- Purple spot/cotyledon (Avg.) [3, 8]: 18.8
- Purple spots (Total) [3, 8]: 658
- Purple spot/cotyledon (Avg.) [3, 9]: 14.2
- Purple spots (Total) [3, 9]: 497
- Purple spot/cotyledon (Avg.) [3, 10]: 0.55
- Purple spots (Total) [3, 10]: 19
- Purple spot/cotyledon (Avg.) [3, 11]: 0.93
- Purple spots (Total) [3, 11]: 32
- Purple spot/cotyledon (Avg.) [3, 12]: 1.8
- Purple spots (Total) [3, 12]: 63
- Purple spot/cotyledon (Avg.) [3, 13]: 0.68
- Purple spots (Total) [3, 13]: 24
- Purple spot/cotyledon (Avg.) [3, 14]: 1.75
- Purple spots (Total) [3, 14]: 61
- Purple spot/cotyledon (Avg.) [3, 15]: 3.26
- Purple spots (Total) [3, 15]: 114
- Editing efficiency ([3]; Table 14 (Change 2), SCR7 1 μM, 1 day, cv. Hong-Kwang, DD→16L/8D, 28° C.): 7.45
- Editing efficiency ([3]; Table 14 (Change 2), SCR7 1 μM, 2 days, cv. Hong-Kwang, DD→16L/8D, 28° C.): 7.17
- Editing efficiency ([3]; Table 14 (Change 2), SCR7 1 μM, 3 days, cv. Hong-Kwang, DD→16L/8D, 28° C.): 7.54
- Editing efficiency ([3]; Table 14 (Change 2), SCR7 10 μM, 1 day, cv. Hong-Kwang, DD→16L/8D, 28° C.): 11.34
- Editing efficiency ([3]; Table 14 (Change 2), SCR7 10 μM, 2 days, cv. Hong-Kwang, DD→16L/8D, 28° C.): 13.52
- Editing efficiency ([3]; Table 14 (Change 2), SCR7 10 μM, 3 days, cv. Hong-Kwang, DD→16L/8D, 28° C.): 15.15
- Purple spot/cotyledon (Avg.) [3, 16]: 26.0
- Purple spots (Total) [3, 16]: 912
- Purple spot/cotyledon (Avg.) [3, 17]: 17.9
- Purple spots (Total) [3, 17]: 627
- Purple spot/cotyledon (Avg.) [3, 18]: 18.9
- Purple spots (Total) [3, 18]: 663
- Purple spot/cotyledon (Avg.) [3, 19]: 22.9
- Purple spots (Total) [3, 19]: 802
- Purple spot/cotyledon (Avg.) [3, 20]: 21.5
- Purple spots (Total) [3, 20]: 754
- Purple spot/cotyledon (Avg.) [3, 21]: 18.8
- Purple spots (Total) [3, 21]: 660
- Purple spot/cotyledon (Avg.) [3, 22]: 1.96
- Purple spots (Total) [3, 22]: 68
- Purple spot/cotyledon (Avg.) [3, 23]: 1.29
- Purple spots (Total) [3, 23]: 45
- Purple spot/cotyledon (Avg.) [3, 24]: 1.44
- Purple spots (Total) [3, 24]: 50
- Purple spot/cotyledon (Avg.) [3, 25]: 2.60
- Purple spots (Total) [3, 25]: 91
- Purple spot/cotyledon (Avg.) [3, 26]: 2.91
- Purple spots (Total) [3, 26]: 102
- Purple spot/cotyledon (Avg.) [3, 27]: 2.85
- Purple spots (Total) [3, 27]: 100
- increase of HDR efficiency ([3]; compared to the comparative control group): 4 times
- HDR frequency, dependence on treatment ([3]; cultivation period 0, 1, 2 or 3 days, 0, 1, 10 μM, pTC217): HDR frequency increases in accordance with an increase in the treatment time (period) and concentration
- Purple spot/cotyledon (Avg.) [3, 28]: 22.2
- Purple spots (Total) [3, 28]: 1154
- Purple spot/cotyledon (Avg.) [3, 29]: 21.8
- Purple spots (Total) [3, 29]: 1137
- Purple spot/cotyledon (Avg.) [3, 30]: 1
- Purple spots (Total) [3, 30]: 52
- Purple spot/cotyledon (Avg.) [3, 31]: 2.61
- Purple spots (Total) [3, 31]: 136
